From ChEMBL document CHEMBL5226323, “Targeting Nuclear Receptors in Neurodegeneration and Neuroinflammation” (J Med Chem, 2021)
Blank lines part the entries; values can stand above or below the molecule they belong to.

What was measured:
[1] = Inhibition of RXR (unknown origin)
[2] = molecular target: T1, Retinoic acid receptor RXR-gamma (Homo sapiens) (UniProt P48443); assay: Agonist activity at RXRgamma (unknown origin) assessed as fold activation; conditions: filed as agonist
T1 sequence (whole entry): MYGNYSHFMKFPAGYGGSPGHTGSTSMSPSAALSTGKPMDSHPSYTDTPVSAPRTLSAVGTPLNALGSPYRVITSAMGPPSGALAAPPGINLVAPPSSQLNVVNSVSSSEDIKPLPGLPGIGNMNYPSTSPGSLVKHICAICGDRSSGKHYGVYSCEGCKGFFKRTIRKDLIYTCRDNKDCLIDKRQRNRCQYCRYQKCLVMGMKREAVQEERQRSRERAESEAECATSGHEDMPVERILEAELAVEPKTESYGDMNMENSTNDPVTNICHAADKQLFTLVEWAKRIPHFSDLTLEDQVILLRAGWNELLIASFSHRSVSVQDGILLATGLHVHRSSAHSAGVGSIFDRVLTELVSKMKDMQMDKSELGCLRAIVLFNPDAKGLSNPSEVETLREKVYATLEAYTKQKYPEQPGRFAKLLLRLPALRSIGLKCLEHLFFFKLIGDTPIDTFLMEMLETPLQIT

[3] = molecular target: T2, Retinoic acid receptor RXR-beta (Homo sapiens) (UniProt P28702); assay: Agonist activity at RXRbeta (unknown origin) assessed as fold activation; conditions: filed as agonist
T2 sequence (whole entry): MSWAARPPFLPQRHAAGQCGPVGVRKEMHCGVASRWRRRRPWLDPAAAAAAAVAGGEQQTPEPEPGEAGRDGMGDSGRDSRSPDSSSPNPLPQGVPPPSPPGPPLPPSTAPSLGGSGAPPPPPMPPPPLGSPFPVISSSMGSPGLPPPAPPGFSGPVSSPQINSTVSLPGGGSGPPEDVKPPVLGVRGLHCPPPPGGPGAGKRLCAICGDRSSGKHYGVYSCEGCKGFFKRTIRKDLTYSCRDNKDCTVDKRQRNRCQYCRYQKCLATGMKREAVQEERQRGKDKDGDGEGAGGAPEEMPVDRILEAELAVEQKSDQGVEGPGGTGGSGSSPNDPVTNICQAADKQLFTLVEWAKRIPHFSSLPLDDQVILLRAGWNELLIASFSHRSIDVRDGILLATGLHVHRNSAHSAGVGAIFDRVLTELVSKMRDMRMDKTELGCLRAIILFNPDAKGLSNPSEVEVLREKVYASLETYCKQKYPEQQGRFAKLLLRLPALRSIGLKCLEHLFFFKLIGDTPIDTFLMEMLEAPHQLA

[4] = molecular target: T3, Retinoic acid receptor RXR-alpha (Homo sapiens) (UniProt P19793); assay: Agonist activity at RXRalpha (unknown origin) assessed as fold activation; conditions: filed as agonist
T3 sequence (whole entry): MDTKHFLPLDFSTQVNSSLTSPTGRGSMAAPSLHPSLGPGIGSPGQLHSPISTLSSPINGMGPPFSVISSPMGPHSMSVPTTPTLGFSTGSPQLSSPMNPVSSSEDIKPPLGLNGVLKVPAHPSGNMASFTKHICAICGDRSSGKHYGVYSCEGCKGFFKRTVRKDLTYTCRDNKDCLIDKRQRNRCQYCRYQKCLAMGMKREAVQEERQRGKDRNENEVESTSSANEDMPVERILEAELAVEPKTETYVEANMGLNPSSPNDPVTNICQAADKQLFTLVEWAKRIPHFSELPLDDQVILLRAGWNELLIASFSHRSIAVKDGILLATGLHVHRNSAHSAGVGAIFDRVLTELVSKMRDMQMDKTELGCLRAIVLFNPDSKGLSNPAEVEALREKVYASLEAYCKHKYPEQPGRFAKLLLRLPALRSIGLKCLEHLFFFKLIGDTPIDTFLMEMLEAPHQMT

Mus musculus = assay: Anti-alzheimer activity against APP/PS1 mouse assessed as decrease in A-beta levels in hippocampus at 100 mg/kg, po measured after 14 days by ELISA analysis relative to control; format: functional; set-up: scale not given: the % may be the effect or the level left; conditions: time 14 day
[5] = Half life in ip dosed mouse; format: ADME, organism-based; conditions: in vivo
[6] = molecular target: T4, Nuclear receptor subfamily 4 group A member 2/Retinoic acid receptor RXR-alpha (Homo sapiens, UniProt P19793+P43354); assay: Inhibition of full-length Nurr1-RXRalpha in human SH-SY5Y cells; format: cell-based
T4 sequence (P43354 whole entry, one chain of several, the tested form may be a part): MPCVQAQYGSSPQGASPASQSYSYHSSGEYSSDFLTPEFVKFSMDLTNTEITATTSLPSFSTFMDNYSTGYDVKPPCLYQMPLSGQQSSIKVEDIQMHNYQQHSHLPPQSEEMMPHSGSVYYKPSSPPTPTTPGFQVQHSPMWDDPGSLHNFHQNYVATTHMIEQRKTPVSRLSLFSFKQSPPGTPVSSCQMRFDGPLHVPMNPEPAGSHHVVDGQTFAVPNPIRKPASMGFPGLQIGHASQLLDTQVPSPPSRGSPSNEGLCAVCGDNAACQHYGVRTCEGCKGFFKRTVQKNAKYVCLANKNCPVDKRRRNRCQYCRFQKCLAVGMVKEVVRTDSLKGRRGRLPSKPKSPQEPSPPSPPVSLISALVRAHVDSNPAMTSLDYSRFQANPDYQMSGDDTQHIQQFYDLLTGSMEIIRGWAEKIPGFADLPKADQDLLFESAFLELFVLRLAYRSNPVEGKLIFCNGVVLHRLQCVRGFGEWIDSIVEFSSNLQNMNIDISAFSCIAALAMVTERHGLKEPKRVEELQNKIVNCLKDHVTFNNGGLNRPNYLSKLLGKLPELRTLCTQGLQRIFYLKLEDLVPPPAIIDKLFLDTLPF

[7] = molecular target: T5, Nuclear receptor subfamily 4immunitygroup A member 1 (Homo sapiens, UniProt P22736); assay: Inhibition of Gal4-fused Nur77 in HEK293T cells; format: cell-based
T5 sequence (P22736 whole entry, the tested form may be a part): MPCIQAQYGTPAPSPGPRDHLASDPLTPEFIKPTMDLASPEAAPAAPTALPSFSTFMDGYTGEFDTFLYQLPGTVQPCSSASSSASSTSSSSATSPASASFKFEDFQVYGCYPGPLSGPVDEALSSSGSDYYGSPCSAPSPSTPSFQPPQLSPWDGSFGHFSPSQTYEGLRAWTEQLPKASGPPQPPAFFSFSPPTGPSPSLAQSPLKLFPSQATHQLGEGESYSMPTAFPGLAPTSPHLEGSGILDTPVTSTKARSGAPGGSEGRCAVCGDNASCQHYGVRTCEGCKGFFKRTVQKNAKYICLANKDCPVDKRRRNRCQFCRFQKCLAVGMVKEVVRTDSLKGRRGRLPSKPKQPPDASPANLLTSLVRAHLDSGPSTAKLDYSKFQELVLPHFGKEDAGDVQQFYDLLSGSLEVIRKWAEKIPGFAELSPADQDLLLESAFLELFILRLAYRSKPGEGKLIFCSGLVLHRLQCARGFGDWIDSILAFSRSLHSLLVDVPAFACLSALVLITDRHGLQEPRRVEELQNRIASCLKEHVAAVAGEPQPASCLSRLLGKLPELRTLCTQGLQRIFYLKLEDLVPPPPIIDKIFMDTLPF

[8] = Half life in ip dosed mouse brain; format: ADME, organism-based
[9] = Antagonist activity at NFkappaB in rat RAW264.7 cells
[10] = molecular target: T6, Nuclear receptor subfamily 2 group E member 1 (Homo sapiens, UniProt Q9Y466); assay: Inverse agonist activity at TLX (unknown origin)
T6 sequence (Q9Y466 whole entry): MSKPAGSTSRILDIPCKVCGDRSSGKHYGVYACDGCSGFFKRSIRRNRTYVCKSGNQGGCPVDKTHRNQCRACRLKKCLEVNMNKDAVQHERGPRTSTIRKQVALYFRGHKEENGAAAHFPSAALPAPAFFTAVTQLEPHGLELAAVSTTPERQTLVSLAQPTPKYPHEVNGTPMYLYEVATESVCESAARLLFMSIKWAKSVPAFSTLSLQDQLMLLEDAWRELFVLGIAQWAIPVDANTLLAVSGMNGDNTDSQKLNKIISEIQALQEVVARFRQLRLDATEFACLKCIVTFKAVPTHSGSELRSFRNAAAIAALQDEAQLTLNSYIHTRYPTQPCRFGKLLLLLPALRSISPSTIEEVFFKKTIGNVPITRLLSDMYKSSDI

[11] = molecular target: T7, Retinoic acid receptor RXR-beta (Homo sapiens, UniProt P28702); assay: Inhibition of RXRbeta (unknown origin)
T7 sequence (P28702 whole entry): T2 sequence (whole entry)

[12] = molecular target: T8, Retinoic acid receptor RXR-gamma (Homo sapiens, UniProt P48443); assay: Inhibition of RXRgamma (unknown origin)
T8 sequence (P48443 whole entry): T1 sequence (whole entry)

[13] = molecular target: T9, Retinoic acid receptor RXR-alpha (Homo sapiens, UniProt P19793); assay: Inhibition of RXRalpha (unknown origin)
T9 sequence (P19793 whole entry): T3 sequence (whole entry)

[14] = molecular target: T6, Nuclear receptor subfamily 2 group E member 1; assay: Inverse agonist activity at TLX (unknown origin) assessed as fold activation; conditions: filed as inverse agonist
[15] = molecular target: T9, Retinoic acid receptor RXR-alpha; assay: Antagonist activity at RXRalpha (unknown origin)
[16] = molecular target: T9, Retinoic acid receptor RXR-alpha; assay: Inhibition of RXRalpha (unknown origin) by BRET assay
[17] = molecular target: T4, Nuclear receptor subfamily 4 group A member 2/Retinoic acid receptor RXR-alpha; assay: Inhibition of Nurr1-RXRalpha (unknown origin) by BRET assay; format: protein-complex assay
Homo sapiens = organism: Homo sapiens; assay: Selectivity ratio of IC50 for Nurr1-RXRalpha (unknown origin) to IC50 for RXRalpha (unknown origin) by BRET assay
[18] = molecular target: T5, Nuclear receptor subfamily 4immunitygroup A member 1; assay: Inhibition of full length Nur77 in HEK293T cells at 50 uM relative to control; format: cell-based
[19] = molecular target: Nuclear receptor subfamily 4 group A member 1 (Mus musculus) (UniProt P12813); assay: Inhibition of full length Nur77 in mouse MN9D cells at 50 uM relative to control; format: cell-based
Nuclear receptor subfamily 4 group A member 1 (Mus musculus), sequence (P12813 whole entry): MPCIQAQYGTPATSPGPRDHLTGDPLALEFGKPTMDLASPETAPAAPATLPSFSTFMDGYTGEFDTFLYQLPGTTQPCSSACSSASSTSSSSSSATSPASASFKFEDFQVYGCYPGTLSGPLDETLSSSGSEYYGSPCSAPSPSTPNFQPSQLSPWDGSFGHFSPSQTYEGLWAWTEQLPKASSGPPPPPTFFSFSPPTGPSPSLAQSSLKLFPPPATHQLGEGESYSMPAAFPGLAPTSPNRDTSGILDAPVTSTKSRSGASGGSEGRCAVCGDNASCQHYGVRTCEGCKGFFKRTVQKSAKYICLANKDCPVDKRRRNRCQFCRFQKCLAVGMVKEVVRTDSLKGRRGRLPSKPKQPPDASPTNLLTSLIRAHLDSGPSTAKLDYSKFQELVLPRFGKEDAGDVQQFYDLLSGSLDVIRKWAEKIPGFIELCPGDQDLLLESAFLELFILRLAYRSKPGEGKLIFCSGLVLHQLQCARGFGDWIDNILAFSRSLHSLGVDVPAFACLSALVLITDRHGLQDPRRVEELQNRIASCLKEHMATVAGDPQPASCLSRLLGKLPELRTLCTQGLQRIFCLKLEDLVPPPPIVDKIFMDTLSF

[20] = molecular target: T5, Nuclear receptor subfamily 4immunitygroup A member 1; assay: Binding affinity to Nur77 (unknown origin) by SPR assay
[21] = molecular target: T5, Nuclear receptor subfamily 4immunitygroup A member 1; assay: Agonist activity at full length Nur77 in Normal human bronchial epithelial cell assessed as fold increase of receptor transactivation at 10 uM; format: cell-based; conditions: filed as agonist

EC50 [1]: 3 nM
Compound: Cc1cc2c(cc1C1(c3ccc(C(=O)O)cn3)CC1)C(C)(C)CCC2(C)C

fold change (FC) [2]: 4
fold change (FC) [3]: 69
fold change (FC) [4]: 9
Compound: CC1=C2[C@H](/C=C(\C)C(=O)O)CC[C@@H](C)[C@H]2CC1

Compound: C=C(c1ccc(C(=O)O)cc1)c1cc2c(cc1C)C(C)(C)CCC2(C)C [BEXAROTENE]
Activity (Mus musculus): 75%

half-life [5]: 1.5 h
EC50 [6]: 900 nM
EC50 [7]: 4700 nM
half-life [8]: 1.5 h
Compound: Cc1ccc(Cl)c(Nc2ccccc2C(=O)O)c1Cl [MECLOFENAMIC ACID]

IC50 [9]: 1600 nM
Compound: CCCCCCCCC(=O)c1c(O)cc(O)cc1CC(=O)OCCCCC

EC50 [10]: 200 nM
Compound: O=C(O)c1ccc(-c2ccc3cc(O)c(C45CC6CC(CC(C6)C4)C5)cc3c2)cc1

EC50 [11]: 36 nM
EC50 [12]: 376 nM
EC50 [13]: 32 nM
Compound: CCN(c1ccc(C(=O)O)cc1)c1ccc(C(C)C)c(OC(C)C)c1

EC50 [10]: 200 nM
fold change (FC) [14]: 5
Compound: CC1(C)CC=C(c2ccccc2)c2cc(/C=C/c3ccc(C(=O)O)cc3)ccc21

Compound: CCCCCOc1cc2c(cc1-c1cc(CCC(=O)O)ccc1O)C(C)(C)CCC2(C)C
EC50 [15]: 240 nM

EC50 [10]: 200 nM
fold change (FC) [14]: 4
Compound: CC1=C(/C=C/C(C)=C/C=C/C(C)=C/C=O)C(C)(C)CCC1 [RETINAL]

pEC50 [16]: 7.7
EC50 [17]: 0.794 nM
inhibition ([17]; concentration not given here): 129%
Ratio IC50 (Homo sapiens): 25
Compound: CC(C)c1cccc(-c2cc(/C=C/C(=O)O)ccc2O)c1

EC50 [11]: 23 nM
EC50 [12]: 3 nM
EC50 [13]: 0.58 nM
Compound: CCN(c1ccc(C(=O)O)cc1)c1ccc(C(C)C)c(OCC(C)C)c1

inhibition [18]: 25%
inhibition [19]: 25%
Compound: CC/C=C\C/C=C\C/C=C\C/C=C\C/C=C\C/C=C\CCC(=O)O

Kd [20]: 2050 nM
fold change (FC) [21]: 15
Compound: CCCCC[C@H](O)/C=C/[C@H]1C=CC(=O)[C@@H]1C/C=C\CCCC(=O)O [PROSTAGLANDIN A2]
